Test results from patent publication US11072780B2, “Method of differentiating human pluripotent cells into cardiac fibroblasts” (Wisconsin Alumni Research Foundation, priority 2016, dated 2021).

Columns and labels:
hPSCs [1] = test: Quantitative RT-PCR time course of GiFGF protocol; assay type: cell-based, human; conditions: qRT-PCR, peaking at day 1
Description: Differentiation of hPSCs to cardiac fibroblasts: Human PSCs were dissociated with 1 ml/well Versene solution (Invitrogen) at 37° C. for 5 minutes, and seeded on Matrigel™ (GFR, BD Biosciences) coated 6-well plates at the density of 1.5×10^6 cells/well in mTeSR1 medium supplemented with 10 μM ROCK inhibitor (Y-27632) (Tocris). Cells were cultured for 5-6 days in mTeSR1 medium with medium change daily until the cells reached 100% confluence when differentiation started (day 0). At day 0, the medium was changed to 2.5 ml RPMI+B27 without insulin (Invitrogen) and supplemented with 12 μM CHIR99021 (Tocris) and cells were treated in this medium for 24 hrs (day 1). At day 1, medium was changed to 3 ml RPMI+B27 without insulin and cells were cultured in this medium for another day (day 2). At day 2, the medium was changed to 2.5 ml of the defined fibroblast culture medium (Table 1) supplemented with bFGF (WiCell). Methods using L-glutamine in place of GlutaMAX were also successful. […]
RT-PCR and quantitative RT-PCR: Cell samples were collected using 0.25% trypsin-EDTA (Invitrogen) to remove the cells from cell culture plates. […] Quantitative RT-PCR (Q-PCR) was performed using Taqman PCR Master Mix and Gene Expression Assays (Applied Biosystems) in triplicate for each sample and each gene. […]

hPSCs [2] = test: Flow cytometry of stage-specific progenitors in GiWi protocol; assay type: cell-based, human; conditions: after 24 hours of treatment
Description: Differentiation of hPSCs to cardiomyocytes using GiWi protocol: Human PSCs were dissociated with 1 ml/well Versene solution at 37° C. for 5 minutes, and seeded on Matrigel™ coated 6-well plates at the density of 1.5×10^6 cells/well in mTeSR1 medium supplemented with 10 μM ROCK inhibitor (Y-27632) (Tocris). Cells were cultured for 5-6 days in mTeSR1 medium until the cells reached 100% confluence when differentiation started (day 0). At day 0, the medium was changed to 2.5 ml RPMI+B27 without insulin (Invitrogen) and supplemented with 12 μM CHIR99021 (Tocris) and cells were treated in this medium for 24 hrs (day 1). At day 1, medium was changed to 3 ml RPMI+B27 without insulin and cells were cultured in this medium for 48 hrs (day 3). […]
Flow Cytometry: Cells were detached from cell culture plates by incubation with 0.25% trypsin-EDTA (Invitrogen) plus 2% chick serum (Sigma) for 5 minutes at 37° C. […] Cells were counted and 0.5-1 million cells were used as the sample size for labeling. […] Data were collected on a FACSCalibur™ flow cytometer (Beckton Dickinson) and analyzed using FlowJo™ software.
Biphasic modulation of the Wnt signaling pathway with small molecules is sufficient to direct the differentiation of monolayer cultured hPSCs to cardiomyocytes^21. […] We first determined the stage-specific mesodermal and cardiac progenitor populations generated by this small molecule (GiWi) protocol^22. […]

[3] = tested on: hPSC-derived cardiac mesodermal progenitors; test: Cardiac fibroblast differentiation induced by bFGF at stage-specific progenitors, flow cytometry at 20 days; assay type: cell-based
Description: Differentiation of hPSCs to cardiac fibroblasts: Human PSCs were dissociated with 1 ml/well Versene solution (Invitrogen) at 37° C. for 5 minutes, and seeded on Matrigel™ (GFR, BD Biosciences) coated 6-well plates at the density of 1.5×10^6 cells/well in mTeSR1 medium supplemented with 10 μM ROCK inhibitor (Y-27632) (Tocris). Cells were cultured for 5-6 days in mTeSR1 medium with medium change daily until the cells reached 100% confluence when differentiation started (day 0). At day 0, the medium was changed to 2.5 ml RPMI+B27 without insulin (Invitrogen) and supplemented with 12 μM CHIR99021 (Tocris) and cells were treated in this medium for 24 hrs (day 1). At day 1, medium was changed to 3 ml RPMI+B27 without insulin and cells were cultured in this medium for another day (day 2). At day 2, the medium was changed to 2.5 ml of the defined fibroblast culture medium (Table 1) supplemented with bFGF (WiCell). Methods using L-glutamine in place of GlutaMAX were also successful. Cells were fed every other day and cultured until day 20 for flow cytometry analysis and subculture of cardiac fibroblasts.
Flow Cytometry: Cells were detached from cell culture plates by incubation with 0.25% trypsin-EDTA (Invitrogen) plus 2% chick serum (Sigma) for 5 minutes at 37° C. Cells were vortexed to disrupt the aggregates followed by neutralization by adding equal volume of EB20 medium (Zhang et al., Circ Res. 2009). Cells were counted and 0.5-1 million cells were used as the sample size for labeling. Cells were fixed in 1% paraformaldehyde in a 37° C. water bath for 10 minutes in the dark. For labeling intracellular markers, cells were permeabilized in ice-cold 90% methanol for 30 minutes on ice. Cells were washed once in FACS buffer (PBS without Ca/Mg2^+, 0.5% BSA, 0.1% NaN3), centrifuged and resuspended in about 50 μl FACS buffer with (for intracellular markers) or without 0.1% Triton X-100. For labeling surface markers, appropriate amounts of the conjugated antibodies were added according to the manufacturer's instruction to the cells in FACS buffer to make the final volume of 100 μl with FACS buffer, and incubated in the dark for 30 minutes at room temperature. Cells were washed once with 3 ml FACS buffer and resuspended in 300-500 μl FACS buffer for analysis. […] Data were collected on a FACSCalibur™ flow cytometer (Beckton Dickinson) and analyzed using FlowJo™ software.
Our goal was to bias the differentiation to generate cardiac fibroblasts rather than cardiomyocytes. […] Following 20 days of differentiation, cells were analyzed by flow cytometry using a specific fibroblast antibody (mouse anti-human fibroblast, clone TE-7) and an antibody to sarcomeric myosin (MF20) expressed in cardiomyocytes. […]

| Compound | early mesodermal gene T expression (hPSCs [1]) | Brachyury expression (hPSCs [2]) | bFGF concentration at which fibroblast marker positive cells peaked ([3]; added on day 2 of differentiation) [ng/mL] | fibroblast marker positive cells (clone TE-7) ([3]; bFGF 0-125 ng/ml in CFBM, 20 days of differentiation, flow cytometry) | cell death ([3]; higher concentration of bFGF added on day 3 or day 4, after day 6 of differentiation) | generation of MF20+ cardiomyocytes ([3]; medium change and bFGF added on day 2 or day 3) |
| --- | --- | --- | --- | --- | --- | --- |
| Cc1c[nH]c(-c2cnc(NCCNc3ccc(C#N)cn3)nc2-c2ccc(Cl)cc2Cl)n1 [CHIR, CHIR99021] | transiently up-regulated | expressed in almost all cells |  |  |  |  |
| bFGF: fibroblast growth factor (WiCell) added to the defined fibroblast medium |  |  | 75 | concentration-dependent increase | significant cell death | effectively prevented |
